“Also recorded” adds a separate entry of the source. No end group written: not given here.
What was measured:
[1] = tested on: human melanoma cell line (A375); test: Intracellular tyrosinase activity inhibition assay (melanin production); type: cell-based; details: A375 cells, 60 h, N = 3
Procedure: (§1) A human melanoma cell line (A375) was provided by the Stem Cell Bank, Chinese Academy of Sciences. The A375 cell line was cultured in DMEM media containing 10% fetal bovine serum and 1% penicillin/streptomycin in an incubator at 37 °C and an atmosphere containing 5% CO2[32].
The A375 cells were seeded at a density of 1 × 10^5 cells/well in a 6-well plate and cultured for 12 h. […] After adding 0.5 ml NaOH (1 M), the cells were disrupted by sonication, and incubated at 50 °C for 10 min.

[2] = tested on: A375 cells; test: MTT assay (cell viability); type: cell-based, human; details: 24 h, inhibitors 2.5 mM in PBS, absorbance 492 nm
Procedure: as §1
The A375 cells were seeded at a density of 1 × 10^4 cells per well in a 96-well plate. They were incubated for 24 h at 37 °C under an atmosphere containing 5% CO2. Then, different tyrosinase inhibitors were added into the culture media. After incubation for 24 h, the cell viability was measured using the MTT assay, which was based on the conversion of MTT to formazan crystals by mitochondrial dehydrogenases. Briefly, the cell cultures were incubated with a 20 µl MTT solution (5 mg/mL) for 4 h at 37 °C. The culture supernatant was carefully removed from the well, and 150 µl DMSO was added followed by shaking for 10 min to dissolve the formazan crystals. Absorbance at 492 nm was measured using a microplate reader (VersaMax Microplate Reader)[35]. Cell viability of the control group in which […] was replaced by PBS was defined as 100%[36].

[3] = tested on: A375 melanoma cells; test: Number of proliferated melanoma cells; type: cell-based, human
Procedure: Fig. S3. The OD values at 475 nm of the solutions shown in Fig. 1A after storage for 12 months. Error
Fig. S4. Total number of proliferated melanoma cells in the presence of different tyrosinase inhibitors.
The concentration of each inhibitor is 2.5 mM. Error bars represent S.D. N=3. […]

[4] = cited from earlier work
Source text: However, the adverse side effects associated with their use have led to restrictions in their applications.

[5] = target: mushroom tyrosinase (Agaricus bisporus, UniProt C7FF04); test: Comparison of tyrosinase inhibition rate (maximum reaction rate, IC50); type: biochemical
Procedure: Figure 2. […] (D) The plot of the percentage of enzyme activity (Vss) vs the […] concentration [I]. IC50 of the inhibitors were directly obtained from the plots.
Before conducting the experiment, all the solutions, 96-well plates, and tips were heated at 37 °C. Equal volumes of tyrosine solutions (final concentration of 2.5 mM) were added to the 96-well plates, mixed with different concentrations of the inhibitors mentioned above and incubated for 10 min at 37 °C. Then, equal volume of the tyrosinase solution (100 U per well) was added to the 96-well plate using a multichannel pipette, which was placed immediately in a microplate reader under shaking conditions for 30 s. Finally, the light absorbance value at 475 nm was recorded at 37 °C continuously for 2 h with intervals of 20 s. The maximum reaction rate of tyrosinase at each concentration of the inhibitor was calculated.

[6] = tested on: tyrosinase; test: CD spectroscopy; type: binding, mushroom; details: 200–260 nm, 293.15 K, mixture with tyrosinase, 0.2 mg/ml
Procedure: The CD measurements were performed at 293.15 K with a bandwidth, step interval and scanning speed of 1.0 nm, 1 nm, and 50 nm min^−1, respectively.
Figure 4.

[7] = 1 mM, comparison among arbutin, glutathione and EF-5

Chain of mushroom tyrosinase (C7FF04 1-392): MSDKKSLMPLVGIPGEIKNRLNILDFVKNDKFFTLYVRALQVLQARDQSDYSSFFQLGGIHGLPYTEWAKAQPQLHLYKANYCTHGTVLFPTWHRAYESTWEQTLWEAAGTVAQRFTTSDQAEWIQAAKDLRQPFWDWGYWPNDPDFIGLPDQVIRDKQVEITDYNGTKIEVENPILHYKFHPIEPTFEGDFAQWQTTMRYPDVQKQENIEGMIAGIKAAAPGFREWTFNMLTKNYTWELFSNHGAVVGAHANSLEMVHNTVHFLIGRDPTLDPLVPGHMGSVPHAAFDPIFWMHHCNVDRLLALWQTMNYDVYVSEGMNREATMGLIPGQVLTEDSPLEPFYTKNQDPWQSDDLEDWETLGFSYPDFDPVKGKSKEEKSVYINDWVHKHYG

## OC[C@H]1O[C@@H](Oc2ccc(O)cc2)[C@H](O)[C@@H](O)[C@@H]1O [arbutin]
[1]; [7]
  melanin inhibitory effect: the melanin inhibitory effects of arbutin and glutathione were similar
[1]; arbutin 5 mM compared with EF-5 0.5 mM
  melanin inhibitory effect: similar
[2]
  cell viability / toxicity: the inhibitory effect of arbutin on the viability of melanoma cells is significant
[3]; A375, arbutin 5 mM group versus EF-5 0.5 mM group
  total concentration of cells: much lesser than that in the EF-5 (0.5 mM) group
[3]; A375 melanoma cells, 2.5 mM, N=3
  inhibition of cell proliferation: inhibit proliferation of the cells
[4]
  contact dermatitis / exogenous ochronosis: contact dermatitis

## Oc1ccc(O)cc1 [hydroquinone]
[4]
  contact dermatitis / exogenous ochronosis: exogenous ochronosis

## O=c1cc(CO)occ1O [kojic acid]
[4]
  carcinogenicity: has demonstrated carcinogenicity

## ECGYF [EF-5, ECGYF]
[5]; EF-5 IC50 as fraction of that of arbutin
  IC50 relative to IC50 of arbutin: about 1/12
[2]
  cell viability / toxicity: nontoxic to cells; also recorded: nontoxic to the melanocytes

## glutathione
[5]; 475 nm, 37 °C, compared with arbutin
  lag phase of the catalytic reaction of tyrosinase: may significantly increase the lag phase
[6]
  change of CD spectrum of tyrosinase: does not show such changes
[1]; [7]
  melanin inhibitory effect: the melanin inhibitory effects of arbutin and glutathione were similar

— PMC6746264, “Novel tyrosinase inhibitory peptide with free radical scavenging ability” (Journal of Enzyme Inhibition and Medicinal Chemistry, 2019)
